Target: human, KCNT1 (Homo sapiens (Human), UniProt Q5JUK3)
Assay: FLIPR Tl/K Flux Assay
Assay type: cell-based
Settings: HEK293 cells stably expressing human KCNT1; Tl+ flux stimulated with EC80 of agonist Loxapine
Summary of the method: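 Inhibition values come from a Hill-equation fit of % inhibition versus log concentration, using normalized fluorescence (Fmax/Fmin) over a 160 s read. The read followed stimulation with Tl+ plus EC80 agonist loxapine after 30 min compound pre-incubation at 25 °C. Cells were KCNT1-expressing HEK293, dye-loaded 1 h in pH 7.4 HEPES/HBSS with 5 mM probenecid.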

human, KCNT1, sequence (Q5JUK3 whole entry): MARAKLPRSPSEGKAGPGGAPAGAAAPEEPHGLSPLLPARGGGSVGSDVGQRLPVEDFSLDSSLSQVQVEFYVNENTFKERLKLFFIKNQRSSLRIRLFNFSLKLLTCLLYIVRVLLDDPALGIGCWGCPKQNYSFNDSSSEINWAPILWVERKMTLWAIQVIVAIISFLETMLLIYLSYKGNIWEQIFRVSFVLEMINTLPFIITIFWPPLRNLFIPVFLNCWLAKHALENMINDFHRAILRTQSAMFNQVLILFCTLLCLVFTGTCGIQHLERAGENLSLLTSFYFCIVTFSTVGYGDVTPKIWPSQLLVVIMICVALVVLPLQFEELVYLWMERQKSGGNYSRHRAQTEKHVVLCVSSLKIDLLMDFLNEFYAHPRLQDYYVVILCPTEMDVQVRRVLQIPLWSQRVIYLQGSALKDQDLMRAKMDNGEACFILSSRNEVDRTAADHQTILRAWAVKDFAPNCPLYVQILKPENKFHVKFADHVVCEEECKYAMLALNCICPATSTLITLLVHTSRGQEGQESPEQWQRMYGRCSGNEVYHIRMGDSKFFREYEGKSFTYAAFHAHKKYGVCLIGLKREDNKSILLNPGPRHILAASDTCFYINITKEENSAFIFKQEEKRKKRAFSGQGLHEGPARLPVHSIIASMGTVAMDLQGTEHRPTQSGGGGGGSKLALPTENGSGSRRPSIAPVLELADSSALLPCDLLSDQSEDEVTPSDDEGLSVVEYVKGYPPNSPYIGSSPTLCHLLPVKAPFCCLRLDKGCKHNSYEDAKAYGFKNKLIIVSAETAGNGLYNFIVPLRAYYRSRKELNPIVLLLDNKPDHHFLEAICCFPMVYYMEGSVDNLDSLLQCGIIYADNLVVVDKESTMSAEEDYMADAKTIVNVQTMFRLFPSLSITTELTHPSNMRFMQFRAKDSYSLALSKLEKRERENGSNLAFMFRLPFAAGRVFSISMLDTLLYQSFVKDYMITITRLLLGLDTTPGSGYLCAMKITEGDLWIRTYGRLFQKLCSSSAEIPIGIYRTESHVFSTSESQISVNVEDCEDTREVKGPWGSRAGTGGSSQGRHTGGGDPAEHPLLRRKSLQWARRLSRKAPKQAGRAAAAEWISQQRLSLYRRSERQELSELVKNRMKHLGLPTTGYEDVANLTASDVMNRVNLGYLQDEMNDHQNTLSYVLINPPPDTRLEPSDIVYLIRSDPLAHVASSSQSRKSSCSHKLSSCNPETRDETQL

| IC50 | SMILES |
| --- | --- |
| < 250 nM | N#Cc1cncc(C(=O)N[C@H]2CCCn3nc(-c4ccnc(C(F)(F)F)c4)cc32)n1 [Compound I-321a, (S)-6-Cyano-N-(2-(2-(trifluoromethyl)pyridin-4-yl)-4,5,6,7-tetrahydropyrazolo[1,5-a]pyridin-4-yl)pyrazine-2-carboxamide] |
| > 1000 nM | Cn1nc(C(F)(F)F)cc1C(=O)N[C@H]1CCCn2nc(-c3ccnc(CO)c3)cc21 [Compound I-322a, (S)—N-(2-(2-(Hydroxymethyl)pyridin-4-yl)-4,5,6,7-tetrahydropyrazolo[1,5-a]pyridin-4-yl)-1-methyl-3-(trifluoromethyl)-1H-pyrazole-5-carboxamide] |
| < 250 nM | N#Cc1cc(F)cc(C(=O)N[C@H]2CCn3nc(-c4ccnc(C(F)(F)F)c4)cc32)c1 [Compound I-323a, (S)-3-Cyano-5-fluoro-N-(2-(2-(trifluoromethyl)pyridin-4-yl)-5,6-dihydro-4H-pyrrolo[1,2-b]pyrazol-4-yl)benzamide] |
| < 250 nM | Cn1nc(C(F)(F)F)nc1C(=O)N[C@H]1CCCCn2nc(-c3ccnc(C(F)(F)F)c3)cc21 [Compound I-324a, (S)-1-Methyl-3-(trifluoromethyl)-N-(2-(2-(trifluoromethyl)pyridin-4-yl)-5,6,7,8-tetrahydro-4H-pyrazolo[1,5-a]azepin-4-yl)-1H-1,2,4-triazole-5-carboxamide] |
| < 250 nM | Cc1nn(C(F)(F)F)cc1C(=O)N[C@H]1CCCn2nc(-c3ccnc(C(F)(F)F)c3)cc21 [Compound I-325a, (S)-3-Methyl-1-(trifluoromethyl)-N-(2-(2-(trifluoromethyl)pyridin-4-yl)-4,5,6,7-tetrahydropyrazolo[1,5-a]pyridin-4-yl)-1H-pyrazole-4-carboxamide] |
| < 250 nM | Cn1nc(C(F)(F)F)nc1C(=O)N[C@H]1CCCn2nc(-c3ccnc(C(F)(F)F)c3)cc21 [Compound I-326a, (S)-1-Methyl-3-(trifluoromethyl)-N-(2-(2-(trifluoromethyl)pyridin-4-yl)-4,5,6,7-tetrahydropyrazolo[1,5-a]pyridin-4-yl)-1H-1,2,4-triazole-5-carboxamide] |
| < 250 nM | O=C(N[C@H]1CCCn2nc(-c3ccnc(C(F)(F)F)c3)cc21)c1ccnc(C(F)(F)F)n1 [Compound I-327a, (S)-2-(Trifluoromethyl)-N-(2-(2-(trifluoromethyl)pyridin-4-yl)-4,5,6,7-tetrahydropyrazolo[1,5-a]pyridin-4-yl)pyrimidine-4-carboxamide] |
| < 250 nM | N#Cc1cc(C(=O)N[C@H]2CCCn3nc(-c4ccnc(C(F)(F)F)c4)cc32)ccn1 [Compound I-328a, (S)-2-Cyano-N-(2-(2-(trifluoromethyl)pyridin-4-yl)-4,5,6,7-tetrahydropyrazolo[1,5-a]pyridin-4-yl)isonicotinamide] |
| < 250 nM | COc1cc(C(=O)N[C@H]2CCCCn3nc(-c4ccnc(C(F)(F)F)c4)cc32)ccn1 [Compound I-329a, (S)-2-Methoxy-N-(2-(2-(trifluoromethyl)pyridin-4-yl)-5,6,7,8-tetrahydro-4H-pyrazolo[1,5-a]azepin-4-yl)isonicotinamide] |
| < 250 nM | COc1cc(C(=O)N[C@H]2CCCn3nc(-c4ccnc(C(F)(F)F)c4)cc32)ccn1 [Compound I-330a, (S)-2-Methoxy-N-(2-(2-(trifluoromethyl)pyridin-4-yl)-4,5,6,7-tetrahydropyrazolo[1,5-a]pyridin-4-yl)isonicotinamide] |
| < 250 nM | COc1cc(C(=O)N[C@H]2CCn3nc(-c4ccnc(C(F)(F)F)c4)cc32)ccn1 [Compound I-331a, (S)-2-Methoxy-N-(2-(2-(trifluoromethyl)pyridin-4-yl)-5,6-dihydro-4H-pyrrolo[1,2-b]pyrazol-4-yl)isonicotinamide] |
| < 250 nM | COc1cc(C(=O)N[C@H]2CCc3nn(-c4ccnc(C(F)(F)F)c4)cc32)ccn1 [Compound I-332a, (S)-2-Methoxy-N-(2-(2-(trifluoromethyl)pyridin-4-yl)-2,4,5,6-tetrahydrocyclopenta[c]pyrazol-4-yl)isonicotinamide] |

Source: patent US20250313548A1 (Actio Biosciences, Inc., priority 2023, published 2025)
